ChEMBL document CHEMBL1157539, “Thousands of chemical starting points for antimalarial lead identification” (Nature, 2010)

Each compound was assayed on Plasmodium falciparum (assay: GSK_TCMDC: Inhibition of Plasmodium falciparum 3D7 in whole erythrocytes, using parasite LDH activity as an index of growth.). Settings: Plasmodium falciparum, 3D7.
Assay type: functional, organism-based

Q: With CCN(CC)CCN(Cc1ccc(-c2ccc(Cl)s2)cc1)C(=O)Cn1c(CCc2cccc(F)c2F)nc(=O)c2ccccc21 as the compound, how does the XC50 read?
A: Its XC50 is 1140 nM.

Q: With CCCCn1c(Sc2ccc(C#N)c([N+](=O)[O-])c2)nnc1-c1ccc(OC)cc1 as the compound, how does the XC50 read?
A: The XC50 was 1030 nM.

Q: Which XC50 does the source give for Cc1cc(C)nc(-n2[nH]c(C)c(Cc3ccc(C(C)(C)C)cc3)c2=O)n1 here?
A: Its XC50 is 1010 nM.

Q: Which XC50 does the source give for FC(F)(F)c1cc(Nc2ccc(Oc3ccccc3)cc2)c2cc(-c3ccncc3)ccc2n1 here?
A: Its XC50 is 454 nM.

Q: Cc1ccc(NC(=O)c2ccc3ncccc3c2)cc1OC1CCN(Cc2ccc(F)cc2)CC1 was tested. Which XC50 did it give?
A: The XC50 was 944 nM.

Q: For CCNc1cc(C)nc(Nc2ccc(NC(=O)c3cccs3)cc2)n1, which XC50 is on record?
A: The XC50 was 1020 nM.

Q: How did the XC50 turn out when COc1cccc(Nc2nc(C)cc(Nc3cccc(C#N)c3)n2)c1 was run?
A: Its XC50 is 1080 nM.

Q: Which XC50 does the source give for c1ccc(-c2cc(NCCCCNc3cc(-c4ccccc4)nc4ccccc34)c3ccccc3n2)cc1 here?
A: The XC50 was 133 nM.

Q: With COc1ccc2nccc([C@@H](O)CN3CCC(NCc4ccc5c(c4)oc(=S)n5C)CC3)c2c1 as the compound, how does the XC50 read?
A: Its XC50 is 187 nM.

Q: For CS(=O)(=O)Cc1ccc(Nc2nccc(N3CCCc4cc(NC(=O)Nc5cccc(C(F)(F)F)c5)ccc43)n2)cc1, which XC50 is on record?
A: The XC50 was 148 nM.

Q: For COc1ccc2nccc(N(C)CC3(O)CCN(CCc4ccc5c(c4)OCCO5)CC3)c2n1, which XC50 is on record?
A: Its XC50 is 143 nM.

Q: How did the XC50 turn out when CN(C)C1CCN(Cc2ccc(N3CCN(Cc4cccc5[nH]ccc45)CC3)nc2)CC1 was run?
A: Its XC50 is 1530 nM.

Q: For COc1ccc2nccc([C@@H](O)CN3CCC(NCc4nc5ccc(F)cc5[nH]4)CC3)c2c1, which XC50 is on record?
A: The XC50 was 732 nM.

Q: With O=C(CCN(Cc1ccco1)c1nc(-c2ccc(F)cc2)nc2ccccc12)NC1CC1 as the compound, how does the XC50 read?
A: The XC50 was 1580 nM.

Q: Which XC50 does the source give for N#Cc1ccc(N(CCOC(=O)c2ccccc2)Cc2ccccc2C(F)(F)F)cc1C(F)(F)F here?
A: The XC50 was 921 nM.

Q: Which XC50 does the source give for CCOC(=O)c1ccc(N2CCCCC2)c(NC(=O)C(Cl)(Cl)Cl)c1 here?
A: The XC50 was 849 nM.

Q: For CN1CCC(NCc2ccc(-c3cccc(S(=O)(=O)NCc4ccccc4)c3)cc2)CC1, which XC50 is on record?
A: The XC50 was 324 nM.

Q: For COc1cc(C)nc2ccc(NC(=O)Nc3ccccc3[N+](=O)[O-])cc12, which XC50 is on record?
A: Its XC50 is 837 nM.

Q: How did the XC50 turn out when O=C(Nc1cccc(CN2CCN(Cc3cccc(O)c3)CC2)c1)c1cc2ccccc2s1 was run?
A: Its XC50 is 1120 nM.

Q: How did the XC50 turn out when O=C(N[C@H]1CCN(CCc2ccc(O[C@H]3CCNC3)cc2)C1)c1ccc(Cl)c(Cl)c1 was run?
A: The XC50 was 828 nM.

Q: Which XC50 does the source give for CCN(CC)CCNC(=O)/C(=C/C=C/c1cc2cc(Cl)c(Cl)cc2[nH]1)OC here?
A: Its XC50 is 927 nM.

Q: How did the XC50 turn out when Oc1ccc(CCNCCCCCCNCCc2ccc(-c3ccccc3)cc2)cc1O was run?
A: The XC50 was 603 nM.

Q: Which XC50 does the source give for CN(Cc1cccc(F)c1)C1CCN(c2cc(NC(=O)c3ccc(F)cc3)ccn2)CC1 here?
A: Its XC50 is 1160 nM.

Q: For CC(C)[C@H](NC(=O)c1ccc(O)c(-c2ccc(Cl)c(Cl)c2)c1)C(=O)NCCN1CCCC1, which XC50 is on record?
A: The XC50 was 929 nM.

Q: For Cc1cc2nc(-c3ccc(C(=O)NC4CCN(Cc5ccccc5)CC4)s3)[nH]c2cc1C, which XC50 is on record?
A: Its XC50 is 771 nM.

Q: CCN(CCCN1CCCCC1)c1cc(C)nc(Nc2ccc(C)cc2Cl)n1 was tested. Which XC50 did it give?
A: Its XC50 is 339 nM.

Q: How did the XC50 turn out when CCCCCc1cnc2nc(N)nc(N)c2c1C was run?
A: The XC50 was 211 nM.

Q: With COc1cc(F)c2ncc(Cl)c(CCN3CCC(NCc4ccc5c(c4)OCCO5)CC3)c2c1 as the compound, how does the XC50 read?
A: The XC50 was 469 nM.

Q: O=C(NC1CCCCN(Cc2ccccc2O)C1)c1cccc(Cl)c1 (centres undefined) was tested. Which XC50 did it give?
A: The XC50 was 1060 nM.

Q: With CCOC(=O)CN1Cc2cc(NCc3ccc4ccc5nc(C)[nH]c(=O)c5c4c3)ccc2C1=O as the compound, how does the XC50 read?
A: Its XC50 is 700 nM.

Q: For CC(C)CC(=O)N(Cc1ccc(-c2ccc(CNC3Cc4ccccc4C3)cc2)cc1)C1CCNCC1, which XC50 is on record?
A: The XC50 was 1170 nM.

Q: Which XC50 does the source give for O=C(NCCCN1CCN(c2cccc(Cl)c2)CC1)c1ccc(-c2nc3cc(Cl)c(Cl)cc3[nH]2)cc1 here?
A: Its XC50 is 697 nM.

Q: With COc1cc(CC2c3cc(O)c(Cl)cc3CCN2C)c(OC)cc1C (centres undefined) as the compound, how does the XC50 read?
A: The XC50 was 713 nM.

Q: How did the XC50 turn out when CCc1nc2nc(C)cc(Nc3cc(C)cc(C)c3)n2n1 was run?
A: Its XC50 is 294 nM.

Q: Cc1ccc(N2C(=O)C3C(C2=O)C2(c4ccccc4)C(=O)C3(c3ccccc3)C(c3ccccc3)=C2c2ccccc2)c(C)c1 (centres undefined) was tested. Which XC50 did it give?
A: Its XC50 is 529 nM.

Q: With CN1CCCN(c2ccnc3cc4c(cc23)N(C(=O)c2ccc(Cl)cc2Cl)CC4)CC1 as the compound, how does the XC50 read?
A: The XC50 was 812 nM.

Q: CC1=C(C(=O)OCCOCc2ccccc2)C(c2ccccc2C(F)(F)F)C(C(=O)OCCOCc2ccccc2)=C(C)N1 was tested. Which XC50 did it give?
A: Its XC50 is 532 nM.

Q: For COc1ccc(C2C(C(=O)OC3CCCCC3)=C(C)NC3=C2C(=O)CCC3)cc1Br (centres undefined), which XC50 is on record?
A: The XC50 was 579 nM.

Q: COc1cccc(CCc2nc3c(N4CCC(Cc5ccccc5)CC4)cccc3n2CC2CNCCO2)c1 (centres undefined) was tested. Which XC50 did it give?
A: The XC50 was 800 nM.
